Our source for the Ki values is BindingDB's records for doi:10.1124/mol.61.2.415 (University of Ferrara, 2002).

Several values for one entry are separate records, joined by “and”; a condition that tells them apart may be missing. Equal values may be shown once.

One may read the Ki as the equilibrium dissociation constant of an inhibitor or competing ligand from its target.

The assay deals with T1, Adenosine receptor A3 (Homo sapiens, UniProt P0DMS8).
T1 sequence (P0DMS8 whole entry): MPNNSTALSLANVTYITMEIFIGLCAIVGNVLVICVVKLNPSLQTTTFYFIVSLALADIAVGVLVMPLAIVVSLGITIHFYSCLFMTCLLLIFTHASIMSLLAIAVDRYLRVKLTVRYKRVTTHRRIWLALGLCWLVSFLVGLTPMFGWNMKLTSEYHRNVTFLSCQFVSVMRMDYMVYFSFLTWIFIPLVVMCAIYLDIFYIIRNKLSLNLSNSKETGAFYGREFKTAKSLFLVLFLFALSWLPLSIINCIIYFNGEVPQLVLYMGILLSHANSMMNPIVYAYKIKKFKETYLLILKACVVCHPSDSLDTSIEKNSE
In turn, `Nc1nc2ccc(Cl)cc2c2nc(-c3ccco3)nn12` showed a Ki of 122 nM. Regarding `Nc1nc2c(cnn2CCc2ccccc2)c2nc(-c3ccco3)nn12`, the inhibition constant Ki is > 10000 nM.

Turning to `CCCCn1cc2c(nc(NC(=O)Nc3ccccc3)n3nc(-c4ccco4)nc23)n1`, the inhibition constant (Ki) was 1.4 nM and 0.93 nM. With `Cn1cc2c(nc(NC(=O)Nc3ccccc3)n3nc(-c4ccco4)nc23)n1` the figure was 1.7 nM and 1.5 nM; with `CCn1cc2c(nc(NC(=O)Nc3ccccc3)n3nc(-c4ccco4)nc23)n1`, 1.2 nM. As for `CCCCC#Cc1nc(N)c2ncn([C@@H]3O[C@H](C(=O)NCC)[C@H](O)C3O)c2n1` (stereo partly drawn) [(2S,3R,5R)-5-[6-amino-2-(hex-1-yn-1-yl)-9H-purin-9-yl]-N-ethyl-3,4-dihydroxyoxolane-2-carboxamide], the figure is 750 nM and 740 nM.

With `CCCn1cc2c(nc(NC(=O)Nc3ccccc3)n3nc(-c4ccco4)nc23)n1` [MRE 3055F20], the inhibitory constant (Ki) was 1 nM and 0.53 nM.
